Data from patent US8106055B2, “Substituted amide compounds” (Gruenenthal GmbH, priority 2007, dated 2012).

How the values were obtained:
[1] = biological target: T1, serotonin (5-HT) reuptake (Rattus norvegicus, UniProt P31652); experiment: Inhibition of serotonin (5HT) reuptake in synaptosomes from rat brain; assay type: biochemical; conditions: for 5-HT (inhibition of reuptake of serotonin, % inhibition): test concentration of 10 μM; for inhibition at 10 µM: Table 2, test concentration 10 μM, read-out: 5-HT reuptake
T1 construct: synaptosomes are freshly isolated from areas of the rat brain; from tissue; host or cells: rat brain synaptosomes (P2 fraction)
Procedure, shortened: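 Compounds screened at 10 μM and reported as percent inhibition of serotonin uptake. Uptake measured in a freshly prepared P2 synaptosomal fraction from rat brain.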

[2] = biological target: T2, bradykinin 1 receptor (B1R) of the rat (Rattus norvegicus, UniProt P97583); experiment: Functional investigation on the rat bradykinin 1 receptor (B1R), Ca2+ FLIPR assay in CHO K1 rB1R cells; assay type: cell-based; conditions: test substance 10 μM, Ca2+ FLIPR, CHO K1 rB1R cells; for B1R Ant. r [10 μM] % Inhibition: B1R antagonism rat; for inhibition at 10 µM: CHO-K1, B1R antagonism rat, read-out: B1R Ant. r [10 μM] % Inhibition
T2 construct: expressed in transfected cells; host or cells: CHO K1 cells
T2 sequence (P97583 1-337): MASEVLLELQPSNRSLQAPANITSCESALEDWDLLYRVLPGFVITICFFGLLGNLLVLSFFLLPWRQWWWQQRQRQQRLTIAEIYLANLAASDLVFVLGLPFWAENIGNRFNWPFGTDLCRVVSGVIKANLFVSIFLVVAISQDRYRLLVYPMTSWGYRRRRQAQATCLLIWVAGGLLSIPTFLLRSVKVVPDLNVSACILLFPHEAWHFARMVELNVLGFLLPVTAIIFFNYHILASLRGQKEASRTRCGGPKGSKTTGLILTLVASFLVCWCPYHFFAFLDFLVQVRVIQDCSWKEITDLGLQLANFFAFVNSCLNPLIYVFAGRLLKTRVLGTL
Procedure, shortened: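 Peak Ca2+-dependent fluorescence in B1R-transfected CHO K1 cells measures antagonism of an EC80 agonist challenge given 10-20 min after compound. Agonist is Lys-Des-Arg9-bradykinin for human, Des-Arg9-bradykinin for rat receptor.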

T1 sequence (P31652 whole entry): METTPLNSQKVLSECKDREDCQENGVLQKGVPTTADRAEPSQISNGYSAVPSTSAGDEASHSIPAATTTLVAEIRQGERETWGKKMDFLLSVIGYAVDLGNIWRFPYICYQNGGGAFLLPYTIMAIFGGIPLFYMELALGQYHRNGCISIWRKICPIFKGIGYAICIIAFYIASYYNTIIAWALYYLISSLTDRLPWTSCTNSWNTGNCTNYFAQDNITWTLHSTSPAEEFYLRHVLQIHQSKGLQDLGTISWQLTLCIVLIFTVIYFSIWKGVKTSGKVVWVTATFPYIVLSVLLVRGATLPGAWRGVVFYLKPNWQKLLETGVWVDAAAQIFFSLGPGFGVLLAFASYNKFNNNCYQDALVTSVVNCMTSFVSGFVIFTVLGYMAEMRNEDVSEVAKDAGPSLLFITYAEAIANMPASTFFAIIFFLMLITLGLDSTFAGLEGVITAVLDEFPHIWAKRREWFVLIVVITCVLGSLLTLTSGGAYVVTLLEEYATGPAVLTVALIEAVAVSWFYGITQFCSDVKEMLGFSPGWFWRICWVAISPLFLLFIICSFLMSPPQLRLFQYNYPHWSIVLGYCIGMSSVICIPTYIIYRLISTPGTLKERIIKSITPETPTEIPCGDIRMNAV

Structure (SMILES)	5-HT (inhibition of reuptake of serotonin, % inhibition) [1] [%]	B1R Ant. r [10 μM] % Inhibition [2] [%]	inhibition at 10 µM [1] [%]	inhibition at 10 µM [2] [%]
CN(C)C(c1cccc(F)c1)C1CCC(NC(=O)COCC2CCCN2S(=O)(=O)c2ccc(Cl)c(Cl)c2)CC1 (stereo not drawn) [Example 211]	90	10		
CN(C)C(c1ccc(Cl)cc1)C1CCC(CNC(=O)COCCN(C)S(=O)(=O)c2c(Cl)cccc2Cl)CC1 (stereo not drawn) [Example 207]	72	52		
Cc1ccc(S(=O)(=O)N2CCC(OCC(=O)NCCC3CCC(C(c4cccc(F)c4)N(C)C)CC3)C2)cc1 (stereo not drawn) [Example 216]	87	12		
COc1cc(C)c(S(=O)(=O)N2CCC(OCC(=O)NCC3CCC(C(c4cccc(F)c4)N(C)C)CC3)C2)c(C)c1C (stereo not drawn) [Example 252]	93	4		
COc1ccc(S(=O)(=O)N(C)CCOCC(=O)NC2CCC(C(c3cccs3)N(C)C)CC2)cc1OC (stereo not drawn) [Example 206]	84	20		
CN(C)C(c1cccc(F)c1)C1CCC(NC(=O)COCCN(C)S(=O)(=O)c2ccc(F)cc2)CC1 (stereo not drawn) [Example 205]	84	5		
COc1ccc(S(=O)(=O)N2CCC(OCC(=O)NCC3CCC(C(c4ccc(Cl)cc4)N(C)C)CC3)C2)cc1OC (stereo not drawn) [Example 260]	88	9		
CN(C)C(c1ccccc1)C1CCC(NC(=O)COC2CCN(S(=O)(=O)c3c(Cl)cc(Cl)cc3Cl)C2)CC1 (stereo not drawn) [Example 609, N-[4-(dimethylaminophenylmethyl)-cyclohexyl]-2-[1-(2,4,6-trichlorobenzenesulfonyl)-pyrrolidin-3-yloxy]-acetamide]			86	32
CN(C)C(c1ccc(F)cc1)C1CCC(CNC(=O)COCCN(C)S(=O)(=O)c2ccc(Cl)cc2Cl)CC1 (stereo not drawn) [Example 249]	95	55		
CN(C)C(c1cccc(F)c1)C1CCC(CCNC(=O)COC2CCN(S(=O)(=O)c3ccc(Cl)cc3)C2)CC1 (stereo not drawn) [Example 247]	89	8		
COc1cc(C)c(S(=O)(=O)N(CCOCC(=O)NCCC2CCC(C(c3cccs3)N(C)C)CC2)Cc2ccccc2)c(C)c1C (stereo not drawn) [Example 254]	94	−1		
COc1ccc(S(=O)(=O)N2CCC(OCC(=O)NCCC3CCC(C(c4cccc(F)c4)N(C)C)CC3)C2)cc1OC (stereo not drawn) [Example 262]	90	36		
CN(C)C(c1cccs1)C1CCC(CCNC(=O)COC2CCN(S(=O)(=O)c3ccccc3)CC2)CC1 (stereo not drawn) [Example 230]	94	−1		
CN(C)C(c1ccccc1)C1CCC(NC(=O)COCCN(C)S(=O)(=O)c2c(Cl)cc(Cl)cc2Cl)C1 (stereo not drawn) [Example 615, N-[3-(dimethylaminophenylmethyl)-cyclopentyl]-2-{2-[(2,4,6-trichlorobenzenesulfonyl)-methylamino]-ethoxy}-acetamide]			81	26
CN(C)C(c1cccc(F)c1)C1CCC(CCNC(=O)COC2CCN(S(=O)(=O)c3ccc(Cl)cc3Cl)C2)CC1 (stereo not drawn) [Example 259]	90	25		
CN(C)C(c1cccc(F)c1)C1CCC(NC(=O)COCCN(C)S(=O)(=O)c2c(Cl)cc(Cl)cc2Cl)CC1 (stereo not drawn) [Example 208]	93	25		
COc1ccc(S(=O)(=O)N(C)CCOCC(=O)NCC2CCC(C(c3ccccc3)N(C)C)CC2)cc1 (stereo not drawn) [Example 242]	77	22		
COc1cc(C)c(S(=O)(=O)N2CCC(OCC(=O)NC3CCC(C(c4cccc(F)c4)N(C)C)CC3)C2)c(C)c1 (stereo not drawn) [Example 251]	98	87		
Cc1ccc(S(=O)(=O)N(C)CCOCC(=O)NCCC2CCC(C(c3cccc(F)c3)N(C)C)CC2)cc1 (stereo not drawn) [Example 240]	87	−14		
CN(C)C(c1cccc(F)c1)C1CCC(CCNC(=O)COCCN(C)S(=O)(=O)c2ccc(OC(F)(F)F)cc2)CC1 (stereo not drawn) [Example 215]	90	22		
CN(C)C(c1cccc(F)c1)C1CCC(NC(=O)COC2CCN(S(=O)(=O)c3ccc(Cl)cc3)C2)CC1 (stereo not drawn) [Example 204]	86	−13		
CN(C)C(c1ccccc1)C1CCC(CNC(=O)COCCN(C)S(=O)(=O)c2c(Cl)cc(Cl)cc2Cl)CC1 (stereo not drawn) [Example 614, N-[4-(dimethylaminophenylmethyl)-cyclohexylmethyl]-2-{2-[(2,4,6-trichlorobenzenesulfonyl)-methylamino]-ethoxy}-acetamide]		29	90	
CN(CCOCC(=O)NC1CCC(C(c2ccccc2)N2CCCC2)CC1)S(=O)(=O)c1c(Cl)cc(Cl)cc1Cl (stereo not drawn) [Example 606, 2-{2-[methyl-(2,4,6-trichlorobenzenesulfonyl)-amino]-ethoxy}-N-[4-(phenylpyrrolidin-1-yl-methyl)-cyclohexyl]-acetamide]			85	37
COc1cc(C)c(S(=O)(=O)N(C)CCOCC(=O)NCC2CCC(C(c3cccc(F)c3)N(C)C)CC2)c(C)c1 (stereo not drawn) [Example 248]	90	102		
